Laboratory results as given in US11939312B2, “Enantiomeric entactogen compositions and their use” (Arcadia Medicine, Inc., priority 2021, dated 2024).
Like-named read-outs stand apart in the source and are kept apart here.

How the values were obtained:
[1] = cited from earlier work
[2] = dog, female and male, p.o.; cited from earlier work
[3] = Calculated human equivalent dose (HED) of the NOAEL; conditions: for Human Equivalent Dose (HED): NOAEL (human), total dose / Human Equivalent Dose (HED): neurotoxicology NOAEL (human), total dose: assuming a 60 kg human; for NOAEL: human
[4] = doses of 100-125 mg; cited from earlier work
[5] = rat, p.o., cited from earlier work
[6] = cited from earlier work; remark: listed apart in the source
[7] = p.o. in rat (single housing for SR(±)MDMA); cited from earlier work
[8] = Subjective report of R-MDMA HCL (Example 11); conditions: oral 250 (±) 10 mg
Protocol: Purpose: To determine the physiological and subjective effects of the hydrochloride salt of R-MDMA (oral administration, 250 (±) 10 mg), supplemented with acetyl-L-carnitine (ALCAR), alpha lipoic acid (ALA), ascorbate to reduce or prevent neurotoxicity.

[9] = repeated administration, 50 mg/kg bw, mice (Curry 2018); cited from earlier work
[10] = Maximum recommended starting dose (MRSD); conditions: expected value
[11] = rodent models, doses far above allometrically-scaled clinical doses (Curry 2018); cited from earlier work
[12] = brain imaging studies, 100 mg, healthy volunteers

In the case of `CNC(C)Cc1ccc2c(c1)OCO2` (racemic) [racemic MDMA, 3,4-methylenedioxymethamphetamine], the “time to peak plasma concentration” value ([1]; doses 100-125 mg, humans) is given as 2 to 3 h, the elimination half-life ([1]; similar for doses 50-125 mg) is given as 7 to 9 h and the “Neurotoxicology NOAEL” value [2] is given as 4 mg/kg/week p.o. The “Human Equivalent Dose (HED): NOAEL (human), total dose” value [3] was 2080 mg, the “Human Equivalent Dose (HED): neurotoxicology NOAEL (human), total dose” value [3] was 342.9 mg* and the “Human Equivalent Dose (HED): NOAEL (human)” value ([3]; calculated from NOAEL) was 34 mg/kg →. For the same molecule, the “Human Equivalent Dose (HED): neurotoxicology NOAEL (human)” value ([3]; calculated from neurotoxicology NOAEL) was “NOAEL (human): 6 mg/kg”, the “increase in blood pressure (diastolic)” value [4] was 14.4-25 mmg and the “increase in heart rate” value [4] was 26-30 bpm. For the same molecule, the “Neurotoxicology NOAEL” value ([5]; female) was 25 mg/kg/week p.o1, the “Neurotoxicology NOAEL” value ([5]; male) was 20 mg/kg/week p.o1 and the “onset of subjective effects” value ([6]; Harris 2002) was “approximately 45 mins”. For the same molecule, the “time of peak subjective effects” value ([6]; Harris 2002) was 1.5 to 2 h, the “time to decrease to baseline values” ([6]; Harris 2002) was 5 to 6 h and the “duration of subjective effects” value [6, 12] was “approximately 4.5 hours”. The “time of peak subjective effects” value [6, 12] was 1.67 h, the duration of effects ([6]; one dose) was 4 to 5 h and the “time of peak drug effects” value ([6]; patients with PTSD (Mithoefer 2013)) was 2 to 5 h. The onset of action ([6]; patients with PTSD, after the initial dose (Mithoefer 2013)) was 45 to 75 min, the duration of effects ([6]; with the booster dose) was 5 to 6 h and the “No adverse effect level (NOAEL)” value [7] was “NOAEL: 100 mg/kg”.
In the case of `CN[C@H](C)Cc1ccc2c(c1)OCO2` [R-MDMA, (R)-1-(1,3-Benzodioxol-5-yl)-N-methyl-propan-2-amine], the “AUC in comparison to S-MDMA” value ([1]; Fallon 1999, Fitzgerald 1990) is given as “increased AUC”, the “half-life in comparison to S-MDMA” value ([1]; Fallon 1999, Fitzgerald 1990) is given as “longer half-life” and the hyperthermia or hypothermia [8] is given as “No noticeable hyperthermia or hypothermia”. For the same molecule, the jaw clenching [8] was “No incidence of jaw clenching”, the “onset of noticeable effects” value ([8]; Subject A) was “around 40 minutes” and the “time of peak of the experience” value ([8]; Subject A) was “around two hours after ingestion”. For the same molecule, the blood pressure ([8]; monitor of low precision, result inconclusive) was “increased for a short period”, the heart rate ([8]; short period, from 85 resting) was 115-125 and the evidence of neurotoxicity [9] was “did not show evidence of neurotoxicity”. For the same molecule, the “Human Equivalent Dose (HED): NOAEL (human), total dose” value [3] was greater than 4100 mg, the “Human Equivalent Dose (HED): neurotoxicology NOAEL (human), total dose” value [3] was 450 mg* and the NOAEL [3] was 7.4 mg/kg. For the same molecule, the “Expected MSRD” value [10] was >300 mg:, the temperature fluctuations [11] was “no significant temperature fluctuations” and the “No adverse effect level (NOAEL)” value [7] was “NOAEL: >200 mg/kg”.
In the case of `CN[C@@H](C)Cc1ccc2c(c1)OCO2` [S(+)MDMA, (S)-1-(1,3-Benzodioxol-5-yl)-N-methylpropan-2-amine], the “Human Equivalent Dose (HED): NOAEL (human), total dose” value [3] is reported as less than 2080 mg, the “Human Equivalent Dose (HED): neurotoxicology NOAEL (human), total dose” value [3] is reported as 342.9 mg* and the NOAEL [3] is reported as 6 mg/kg. For the same molecule, the “Expected MSRD” value [10] was 150 mg.
